The record followed here is patent publication US6638956B2, “Pesticidal 1-arylpyrazoles” (Rhone-Poulenc, Inc., priority 1996, dated 2003).

Values joined by “and” are separate entries in the source; they are usually repeats but may differ in a detail not shown here. Equal entries are not always repeated.

`N=C(NO)c1nn(-c2c(Cl)cc(C(F)(F)F)cc2Cl)c(C=O)c1SC(F)(F)F` [Compound 22, 1-[2,6-Dichloro-4-(trifluoromethyl)phenyl]-5-formyl-N-hydroxy-4-trifluoromethylthio-1H-pyrazole-3-carboximidamide] registered a melting point of 72 to 75 °C.

The molecule `C[S+]([O-])c1c(C(=N)NO)nn(-c2c(Cl)cc(C(F)(F)F)cc2Br)c1N` (stereo not shown) [Compound 63, 5-Amino-1-[2-bromo-6-chloro-4-(trifluoromethyl)phenyl]-4-methylsulfinyl-N-hydroxy-1H-pyrazole-3-carboximidamide] registered a melting point of 237 to 238 °C.

In the case of `CC[S+]([O-])c1c(C(=N)NO)nn(-c2c(Cl)cc(C(F)(F)F)cc2Cl)c1N` (stereo not shown) [Compound 42, 5-Amino-1-[2,6-dichloro-4-(trifluoromethyl)phenyl]-N-hydroxy-4-ethylsulfinyl-1H-pyrazole-3-carboximidamide], the melting point is 186 to 189 °C.

Consider `CC(C)C(=O)NNC(=N)c1nn(-c2c(Cl)cc(C(F)(F)F)cc2Cl)c(N)c1[S+](C)[O-]` (stereo not shown) [Compound 70, 5-Amino-1-[2,6-dichloro-4-(trifluoromethyl)phenyl]-4-methylsulfinyl-N-(isopropylcarbonyl)amino-1H-pyrazole-3-carboximidamide], for which the melting point turned out to be 118 °C.

For `C[S+]([O-])c1c(C(=N)NO)nn(-c2ccc(C(F)(F)F)cc2Cl)c1N` (stereo not shown) [Compound 68, 5-Amino-1-[2-chloro-4-(trifluoromethyl)phenyl]-4-methylsulfinyl-N-hydroxy-1H-pyrazole-3-carboximidamide], the melting point is 238 to 239 °C.

Take `CCS(=O)(=O)c1c(C(=N)NO)nn(-c2c(Cl)cc(C(F)(F)F)cc2Cl)c1N` [Compound 48, 5-Amino-1-[2,6-dichloro-4-(trifluoromethyl)phenyl]-N-hydroxy-4-ethylsulfonyl-1H-pyrazole-3-carboximidamide]: the melting point was in the range of 109 to 111 °C.

In the case of `CCCCCCCC(=O)NNC(=N)c1nn(-c2c(Cl)cc(C(F)(F)F)cc2Cl)c(N)c1[S+](C)[O-]` (stereo not shown) [Compound 71, 5-Amino-1-[2,6-dichloro-4-(trifluoromethyl)phenyl]-4-methylsulfinyl-N-(n-heptylcarbonyl)amino-1H-pyrazole-3-carboximidamide], the melting point is 122 °C.

`CC[S+]([O-])c1c(C=NO)nn(-c2c(Cl)cc(OC(F)(F)F)cc2Cl)c1N` (stereo not shown) [Compound 37, 5-Amino-1-[2,6-dichloro-4-(trifluoromethoxy)phenyl]-4-ethylsulfinyl-1H-pyrazole-3-carboxaldehyde oxime] returned a melting point of 204 to 206 °C.

As to `C[S+]([O-])c1c(C(=N)NO)nn(-c2c(Cl)cc(OC(F)(F)F)cc2Cl)c1N` (stereo not shown) [Compound 45, 5-Amino-1-[2,6-dichloro-4-(trifluoromethoxy)phenyl]-N-hydroxy-4-methylsulfinyl-1H-pyrazole-3-carboximidamide], the melting point was 198 to 200 °C.

For `C[S+]([O-])c1c(C=NO[Si](C)(C)C(C)(C)C)nn(-c2c(Cl)cc(C(F)(F)F)cc2Cl)c1N` (stereo not shown), the melting point is 150 to 154 °C.

Turning to `CC[S+]([O-])c1c(C=NO)nn(-c2c(Cl)cc(C(F)(F)F)cc2Cl)c1C` (stereo not shown) [Compound 34, 1-[2,6-Dichloro-4-(trifluoromethyl)phenyl]-4-ethylsulfinyl-5-methyl-1H-pyrazole-3-carboxaldehyde oxime], the melting point was in the range of 210 to 213 °C.

In turn, `CN=C(NOC)c1nn(-c2c(Cl)cc(C(F)(F)F)cc2Cl)c(N)c1[S+](C)[O-]` (stereo not shown) [Compound 50, 5-Amino-1-[2,6-dichloro-4-(trifluoromethyl)phenyl]-N-methoxy-N′-methyl-4-methylsulfinyl-1H-pyrazole-3-carboximidamide] returned a melting point of 139 to 142 °C.

In the case of `CSc1c(C=NO)nn(-c2c(Cl)cc(C(F)(F)F)cc2Cl)c1C` [Compound 29, 1-[2,6-Dichloro-4-(trifluoromethyl)phenyl]-5-methyl-4-methylthio-1H-pyrazole-3-carboxaldehyde oxime], the melting point lay within 160 to 162.5 °C.

For `CCNC1(c2c(Cl)cc(C(F)(F)F)cc2Br)NNC(C(=N)NO)=C1[S+](C)[O-]` (stereo not shown) [Compound 62, 5-[2-Bromo-6-chloro-4-(trifluoromethyl)phenyl]-5-ethylamino-4-methylsulfinyl-N-hydroxy-1H-pyrazole-3-carboximidamide], the melting point is 213 to 214 °C.

On to `CCNc1c([S+](C)[O-])c(C(=N)NO)nn1-c1c(Cl)cc(C(F)(F)F)cc1Cl` (stereo not shown) [Compound 56, 1-[2,6-Dichloro-4-(trifluoromethyl)phenyl]-5-ethylamino-N-hydroxy-4-methylsulfinyl-1H-pyrazole-3-carboximidamide], for which the melting point lay within 192 to 193 °C.

Regarding `CCSc1c(C(=N)NO)nn(-c2c(Cl)cc(C(F)(F)F)cc2Cl)c1N` [Compound 43, 5-Amino-1-[2,6-dichloro-4-(trifluoromethyl)phenyl]-N-hydroxy-4-ethylthio-1H-pyrazole-3-carboximidamide], the melting point lay within 170 to 175 °C.

Regarding `CCOC(=O)C(C)C(=O)ON=Cc1nn(-c2c(Cl)cc(C(F)(F)F)cc2Cl)c(N)c1[S+](C)[O-]` (stereo not shown) [Compound 13, 5-Amino-1-[2,6-dichloro-4-(trifluoromethyl)phenyl]-4-methylsulfinyl-1H-pyrazole-3-carboxaldehyde O-[2-(ethoxycarbonyl)propionyl]oxime], the melting point is 52 to 54 °C.

`CC[S+]([O-])CCNc1c([S+]([O-])CC)c(C(=N)NO)nn1-c1c(Cl)cc(C(F)(F)F)cc1Cl` (stereo not shown) [Compound 66, 1-[2,6-Dichloro-4-(trifluoromethyl)phenyl]-4-ethylsulfinyl-5-[2-(ethylsulfinyl)ethylamino]-N-hydroxy-1H-pyrazole-3-carboximidamide] came in with a melting point of 173 to 175 °C.

For `C[S+]([O-])c1c(C(=N)NN)nn(-c2c(Cl)cc(C(F)(F)F)cc2Cl)c1N` (stereo not shown) [Compound 69, 5-Amino-1-[2,6-dichloro-4-(trifluoromethyl)phenyl]-4-methylsulfinyl-N-amino-1H-pyrazole-3-carboximidamide], the melting point was found to be 210 °C.

In turn, `CC[S+]([O-])c1c(C(=N)NO)nn(-c2c(Cl)cc(C(F)(F)F)cc2Cl)c1NCC[S+](C)[O-]` (stereo not shown) [Compound 64, 1-[2,6-Dichloro-4-(trifluoromethyl)phenyl]-4-ethylsulfinyl-5-[2-(methylsulfinyl)ethylamino]-N-hydroxy-1H-pyrazole-3-carboximidamide] gave a melting point of 108 to 109 °C.

With `C[S+]([O-])c1c(C(=N)NO)nn(-c2c(Cl)cc(C(F)(F)F)cc2Cl)c1N` (stereo not shown) [Compound 44, 5-Amino-1-[2,6-dichloro-4-(trifluoromethyl)phenyl]-N-hydroxy-4-methylsulfinyl-1H-pyrazole-3-carboximidamide], the melting point was 225 to 227 °C and 225 to 226 °C.

`COC(=O)ON=Cc1nn(-c2c(Cl)cc(C(F)(F)F)cc2Cl)c(N)c1SC` [Compound 15, 5-Amino-1-[2,6-dichloro-4-(trifluoromethyl)phenyl]-4-methylthio-1H-pyrazole-3-carboxaldehyde O-(methoxycarbonyl)oxime] had a melting point of 171 to 173 °C.

Molecule `CC(C)ON=Cc1nn(-c2c(Cl)cc(C(F)(F)F)cc2Cl)c(N)c1[S+](C)[O-]` (stereo not shown) [Compound 24, 5-Amino-1-[2,6-dichloro-4-(trifluoromethyl)phenyl]-4-methylsulfinyl-1H-pyrazole-3-carboxaldehyde O-(isopropyl)oxime] displayed a melting point of 128 to 130 °C.

The molecule `C[S+]([O-])CCNc1c([S+](C)[O-])c(C(=N)NO)nn1-c1c(Cl)cc(C(F)(F)F)cc1Cl` (stereo not shown) [Compound 65, 1-[2,6-Dichloro-4-(trifluoromethyl)phenyl]-4-methylsulfinyl-5-[2-(methylsulfinyl)ethylamino]-N-hydroxy-1H-pyrazole-3-carboximidamide] gave a melting point of 150 to 151 °C.

`N=C(NO)c1nn(-c2c(Cl)cc(C(F)(F)F)cc2Cl)c(N)c1[S+]([O-])CCF` (stereo not shown) [Compound 51, 5-Amino-1-[2,6-dichloro-4-(trifluoromethyl)phenyl]-N-hydroxy-4-(2-fluoroethylsulfinyl)-1H-pyrazole-3-carboximidamide]: the melting point was in the range of 212 to 215 °C.

On to `CONC(=N)c1nn(-c2c(Cl)cc(C(F)(F)F)cc2Cl)c(N)c1[S+](C)[O-]` (stereo not shown) [Compound 49, 5-Amino-1-[2,6-dichloro-4-(trifluoromethyl)phenyl]-N-methoxy-4-methylsulfinyl-1H-pyrazole-3-carboximidamide], for which the melting point is 140 to 145 °C.

On to `CS(=O)(=O)c1c(C=NO)nn(-c2c(Cl)cc(C(F)(F)F)cc2Cl)c1N` [Compound 16, 5-Amino-1-[2,6-dichloro-4-(trifluoromethyl)phenyl]-4-methylsulfonyl-1H-pyrazole-3-carboxaldehyde oxime], for which the melting point is 209.5 to 211 °C (dec.).

The molecule `C[S+]([O-])c1c(C(=N)NO)nn(-c2c(Cl)cc(C(F)(F)F)cc2Cl)c1NCC(N)=O` (stereo not shown) [Compound 59, 5-(Aminocarbonylmethylamino)-1-[2,6-dichloro-4-(trifluoromethyl)phenyl]-N-hydroxy-4-methylsulfinyl-1H-pyrazole-3-carboximidamide] displayed a melting point of 119 to 120 °C.

Molecule `C[S+]([O-])c1cn(-c2c(Cl)cc(C(F)(F)F)cc2Cl)nc1C=NO` (stereo not shown) [Compound 20, 1-[2,6-Dichloro-4-(trifluoromethyl)phenyl]-4-methylsulfinyl-1H-pyrazole-3-carboxaldehyde oxime] returned a melting point of 239 to 240 °C.

The molecule `CON=Cc1nn(-c2c(Cl)cc(C(F)(F)F)cc2Cl)c(N)c1[S+](C)[O-]` (stereo not shown) [Compound 17, 5-Amino-1-[2,6-dichloro-4-(trifluoromethyl)phenyl]-4-methylsulfinyl-1H-pyrazole-3-carboxaldehyde O-(methyl)oxime] returned a melting point of 80 °C.

`CCNc1c([S+](C)[O-])c(C=NO)nn1-c1c(Cl)cc(C(F)(F)F)cc1Cl` (stereo not shown) [Compound 2, 1-[2,6-Dichloro-4-(trifluoromethyl)phenyl]-5-ethylamino-4-methylsulfinyl-1H-pyrazole-3-carboxaldehyde oxime] returned a melting point of 158 to 161 °C.
